Consider three compounds from US7829572B2 (Pfizer Inc, priority 2006, dated 2010).

The experiment addresses T1, calcium receptor (CasR) (Homo sapiens, UniProt P41180).
T1 construct: expressed in transfected cells; host or cells: HEK 293
T1 sequence (P41180 20-1078): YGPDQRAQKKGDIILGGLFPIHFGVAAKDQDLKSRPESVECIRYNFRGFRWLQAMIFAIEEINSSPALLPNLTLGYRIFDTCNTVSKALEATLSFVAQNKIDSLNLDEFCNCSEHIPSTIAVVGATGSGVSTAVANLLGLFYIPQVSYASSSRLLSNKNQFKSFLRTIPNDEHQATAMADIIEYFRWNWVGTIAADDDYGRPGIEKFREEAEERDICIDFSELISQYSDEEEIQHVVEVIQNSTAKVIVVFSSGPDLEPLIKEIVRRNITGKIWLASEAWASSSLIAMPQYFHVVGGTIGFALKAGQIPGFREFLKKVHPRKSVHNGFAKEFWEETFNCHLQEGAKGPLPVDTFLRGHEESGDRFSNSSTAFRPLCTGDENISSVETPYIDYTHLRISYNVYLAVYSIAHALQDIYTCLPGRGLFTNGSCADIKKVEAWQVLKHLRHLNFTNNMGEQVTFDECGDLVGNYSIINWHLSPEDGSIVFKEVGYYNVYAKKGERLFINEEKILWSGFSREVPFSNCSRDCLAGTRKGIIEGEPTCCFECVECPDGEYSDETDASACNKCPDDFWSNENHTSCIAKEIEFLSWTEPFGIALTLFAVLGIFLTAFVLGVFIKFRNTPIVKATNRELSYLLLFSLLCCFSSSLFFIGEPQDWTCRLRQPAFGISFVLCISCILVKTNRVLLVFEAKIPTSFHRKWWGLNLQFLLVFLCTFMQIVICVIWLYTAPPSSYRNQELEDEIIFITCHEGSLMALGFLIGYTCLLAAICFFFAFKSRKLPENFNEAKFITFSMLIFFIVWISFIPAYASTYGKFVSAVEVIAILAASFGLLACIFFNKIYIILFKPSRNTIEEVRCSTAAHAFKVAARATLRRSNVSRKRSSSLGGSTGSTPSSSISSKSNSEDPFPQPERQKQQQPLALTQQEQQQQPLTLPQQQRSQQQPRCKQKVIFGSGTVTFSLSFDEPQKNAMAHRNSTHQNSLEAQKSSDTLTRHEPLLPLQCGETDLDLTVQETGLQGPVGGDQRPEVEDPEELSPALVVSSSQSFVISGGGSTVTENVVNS
Kind of experiment: FLIPR Assay for Evaluating the Potency and Selectivity of Test Compounds. Format: cell-based. The settings on record: HEK 293 cells expressing CasR; 30 minutes pre-incubation; stimulation by 1.7 mM Ca2+; read 42 seconds after stimulation. In a few lines: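 HEK293 cells expressing CasR, loaded with Fluo-4, washed in 10 mM HEPES, then preincubated 30 min with compound ([…] to 3 nM). Stimulated with 1.7 mM Ca2+ and fluorescence read at 42 s on FLIPR. IC50 from inhibition of the Ca2+-induced intracellular Ca2+ rise.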
What is called IC50 is the concentration needed to halve the response being measured. For the compound `O=c1c2c(C(F)(F)F)nccc2nc(-c2ncccc2C(F)F)n1CCc1ccccc1` [Example 80, 2-(3-(difluoromethyl)pyridin-2-yl)-3-phenethyl-5-(trifluoromethyl)pyrido[4,3-d]pyrimidin-4(3H)-one], the IC50 stood at 0.3 µM.
The figure for `O=c1c2c(C(F)(F)F)nccc2nc(-c2ccccc2C(F)(F)F)n1CCC1CCCCC1` [Example 81, 3-(2-cyclohexylethyl)-5-(trifluoromethyl)-2-(2-(trifluoromethyl)phenyl)pyrido[4,3-d]pyrimidin-] is 7.89 µM; for `O=c1c2c(C(F)(F)F)nccc2nc(-c2ncccc2C(F)(F)F)n1CCC1CCCCC1` [Example 82, 3-(2-cyclohexylethyl)-5-(trifluoromethyl)-2-(3-(trifluoromethyl)pyridin-2-yl)pyrido[4,3-d]pyrimidin-4(3H)-one] it is 2.53 µM.
